Results as given in ChEMBL document CHEMBL3421625, “Discovery and optimization of novel antagonists to the human neurokinin-3 receptor for the treatment of sex-hormone disorders (Part I)” (J Med Chem, 2015).
pIC50, pKi: −log10 of the molar value. In brackets after ≈: the same amount, converted by molar mass.

Key:
[1] = Lipophilicity, log D of the compound at pH 7.4; assay type: physicochemical; settings: buffer, read-out: logD
[2] = Solubility of the compound in PBS buffer at pH 7.4 by shake-flask method; assay type: physicochemical
Cytochrome P450 3A4 = Cytochrome P450 3A4 (Homo sapiens, UniProt P08684); experiment: Inhibition of CYP3A4 (unknown origin) by luciferase reporter assay in presence of NADPH regeneration system; assay type: ADME
Cytochrome P450 2D6 = Cytochrome P450 2D6 (Homo sapiens, UniProt P10635); experiment: Inhibition of CYP2D6 (unknown origin) by luciferase reporter assay in presence of NADPH regeneration system; assay type: ADME
Cytochrome P450 2C9 = Cytochrome P450 2C9 (Homo sapiens, UniProt P11712); experiment: Inhibition of CYP2C9 (unknown origin) by luciferase reporter assay in presence of NADPH regeneration system; assay type: ADME
Cytochrome P450 2C19 = Cytochrome P450 2C19 (Homo sapiens, UniProt P33261); experiment: Inhibition of CYP2C19 (unknown origin) by luciferase reporter assay in presence of NADPH regeneration system
Cytochrome P450 1A2 = molecular target: T1, Cytochrome P450 1A2 (Homo sapiens, UniProt P05177); experiment: Inhibition of CYP1A2 (unknown origin) by luciferase reporter assay in presence of NADPH regeneration system; assay type: ADME
T1 sequence (P05177 whole entry): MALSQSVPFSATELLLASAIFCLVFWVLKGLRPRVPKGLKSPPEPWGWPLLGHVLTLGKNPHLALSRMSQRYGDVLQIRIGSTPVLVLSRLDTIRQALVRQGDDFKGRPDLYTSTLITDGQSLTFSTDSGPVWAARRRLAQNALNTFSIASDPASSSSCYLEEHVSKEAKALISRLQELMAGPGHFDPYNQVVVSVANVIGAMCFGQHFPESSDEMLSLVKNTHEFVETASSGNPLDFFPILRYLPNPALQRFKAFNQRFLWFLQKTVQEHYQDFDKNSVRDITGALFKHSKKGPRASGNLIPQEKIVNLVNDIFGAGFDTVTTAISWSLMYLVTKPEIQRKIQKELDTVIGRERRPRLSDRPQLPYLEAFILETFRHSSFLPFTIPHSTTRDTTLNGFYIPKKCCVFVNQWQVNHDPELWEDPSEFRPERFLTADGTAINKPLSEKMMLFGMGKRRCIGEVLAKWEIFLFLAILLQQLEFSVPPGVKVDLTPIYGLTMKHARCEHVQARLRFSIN

Neuromedin-K receptor [3] = molecular target: T2, Neuromedin-K receptor (Homo sapiens, UniProt P29371)
T2 sequence (P29371 whole entry): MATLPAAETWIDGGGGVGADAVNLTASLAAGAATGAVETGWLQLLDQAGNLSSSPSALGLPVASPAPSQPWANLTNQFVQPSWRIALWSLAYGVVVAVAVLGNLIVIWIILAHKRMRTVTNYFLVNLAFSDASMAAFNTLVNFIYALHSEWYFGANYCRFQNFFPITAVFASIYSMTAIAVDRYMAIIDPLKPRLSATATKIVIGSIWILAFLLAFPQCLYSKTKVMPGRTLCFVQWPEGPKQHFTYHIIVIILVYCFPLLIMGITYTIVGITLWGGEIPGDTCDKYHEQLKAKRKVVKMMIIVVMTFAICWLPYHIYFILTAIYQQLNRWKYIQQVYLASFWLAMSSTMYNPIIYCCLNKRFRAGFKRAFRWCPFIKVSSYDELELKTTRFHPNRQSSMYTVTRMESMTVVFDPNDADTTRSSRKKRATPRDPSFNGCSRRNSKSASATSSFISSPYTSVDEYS

Neuromedin-K receptor [4] = molecular target: T2, Neuromedin-K receptor; experiment: biochemical
Description: Displacement of [3H]-SB222200 from recombinant human NK3R expressed in CHO cell membranes after 90 mins by scintillation counting analysis

Sequence of Cytochrome P450 2C19 (P33261 whole entry): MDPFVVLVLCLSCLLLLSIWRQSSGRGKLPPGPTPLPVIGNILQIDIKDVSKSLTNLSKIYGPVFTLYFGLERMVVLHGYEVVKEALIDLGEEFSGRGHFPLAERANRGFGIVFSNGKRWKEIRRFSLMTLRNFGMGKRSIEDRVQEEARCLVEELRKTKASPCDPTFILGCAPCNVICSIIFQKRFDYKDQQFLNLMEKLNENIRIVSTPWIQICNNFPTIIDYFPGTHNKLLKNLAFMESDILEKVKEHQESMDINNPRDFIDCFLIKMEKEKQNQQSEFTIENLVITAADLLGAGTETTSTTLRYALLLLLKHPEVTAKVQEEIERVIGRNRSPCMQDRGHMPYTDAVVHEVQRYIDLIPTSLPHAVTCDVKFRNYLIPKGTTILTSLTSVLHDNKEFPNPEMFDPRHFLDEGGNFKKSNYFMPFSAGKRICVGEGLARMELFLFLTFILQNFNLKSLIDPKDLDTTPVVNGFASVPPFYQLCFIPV
Sequence of Cytochrome P450 3A4 (P08684 whole entry): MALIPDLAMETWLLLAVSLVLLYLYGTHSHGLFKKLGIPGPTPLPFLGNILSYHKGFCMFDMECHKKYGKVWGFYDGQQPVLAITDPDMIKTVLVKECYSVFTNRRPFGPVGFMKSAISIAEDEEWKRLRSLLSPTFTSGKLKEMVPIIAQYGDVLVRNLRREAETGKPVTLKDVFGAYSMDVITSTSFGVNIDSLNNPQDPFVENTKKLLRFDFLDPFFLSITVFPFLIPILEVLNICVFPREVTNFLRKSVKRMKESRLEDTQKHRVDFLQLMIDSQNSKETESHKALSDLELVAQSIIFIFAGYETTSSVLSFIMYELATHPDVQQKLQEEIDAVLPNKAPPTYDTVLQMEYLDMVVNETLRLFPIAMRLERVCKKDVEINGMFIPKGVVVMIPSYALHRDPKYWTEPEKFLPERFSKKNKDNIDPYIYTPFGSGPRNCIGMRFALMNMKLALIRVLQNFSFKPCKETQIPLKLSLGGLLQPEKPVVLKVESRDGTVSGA
Sequence of Cytochrome P450 2D6 (P10635 whole entry): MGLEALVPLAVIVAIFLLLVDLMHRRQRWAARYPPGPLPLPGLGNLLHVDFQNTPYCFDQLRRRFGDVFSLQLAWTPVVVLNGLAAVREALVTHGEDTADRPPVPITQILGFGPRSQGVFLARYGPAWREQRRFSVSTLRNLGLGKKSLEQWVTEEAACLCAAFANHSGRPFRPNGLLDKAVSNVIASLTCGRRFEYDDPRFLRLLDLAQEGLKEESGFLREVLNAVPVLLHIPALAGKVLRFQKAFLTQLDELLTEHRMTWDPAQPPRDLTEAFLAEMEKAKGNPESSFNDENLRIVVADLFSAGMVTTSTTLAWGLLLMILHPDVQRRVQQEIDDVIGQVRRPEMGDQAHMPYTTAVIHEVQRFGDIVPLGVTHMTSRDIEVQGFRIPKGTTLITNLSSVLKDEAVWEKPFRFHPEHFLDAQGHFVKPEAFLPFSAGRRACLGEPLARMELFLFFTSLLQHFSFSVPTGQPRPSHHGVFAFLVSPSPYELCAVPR
Sequence of Cytochrome P450 2C9 (P11712 whole entry): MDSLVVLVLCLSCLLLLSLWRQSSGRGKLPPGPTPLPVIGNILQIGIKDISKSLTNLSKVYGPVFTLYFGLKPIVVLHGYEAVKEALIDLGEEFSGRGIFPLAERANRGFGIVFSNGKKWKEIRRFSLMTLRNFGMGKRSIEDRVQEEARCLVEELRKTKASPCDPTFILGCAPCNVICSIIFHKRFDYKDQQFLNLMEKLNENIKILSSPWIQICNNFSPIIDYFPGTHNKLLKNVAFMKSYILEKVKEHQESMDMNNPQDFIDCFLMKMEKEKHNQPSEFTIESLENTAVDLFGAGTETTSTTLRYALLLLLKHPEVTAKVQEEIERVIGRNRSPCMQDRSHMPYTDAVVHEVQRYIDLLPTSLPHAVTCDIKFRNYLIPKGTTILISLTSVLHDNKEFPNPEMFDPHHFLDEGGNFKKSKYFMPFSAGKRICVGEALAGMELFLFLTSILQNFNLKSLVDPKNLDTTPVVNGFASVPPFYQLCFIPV

| SMILES | logD [1] | solubility thermodynamic [2] | pIC50 (Cytochrome P450 3A4) | pIC50 (Cytochrome P450 2D6) | pIC50 (Cytochrome P450 2C9) | pIC50 (Cytochrome P450 2C19) | pIC50 (Cytochrome P450 1A2) | pIC50 (Neuromedin-K receptor [3]) | pKi (Neuromedin-K receptor [4]) |
| --- | --- | --- | --- | --- | --- | --- | --- | --- | --- |
| C[C@@H]1c2nnc(-c3csc(-c4ccccc4)n3)n2CCN1C(=O)c1ccc(F)cc1 | 3.4 | 179 µM (≈ 75.1 µg/mL) | 4.17 | 4.27 | 4.72 | 4.72 | 4.60 | 7.80 | 7.60 |
| C[C@H]1c2nnc(-c3ccccn3)n2CCN1C(=O)c1ccc(F)cc1 |  | ≥ 200 µM |  |  |  |  |  | 5.10 | 5.10 |
| Cc1cccc(-c2nnc3n2CCN(C(=O)c2ccc(F)cc2)C3)n1 | 1.4 | ≥ 200 µM | < 4.00 | < 4.00 | < 4.00 | 4.32 | 4.16 | 6.30 | 6.30 |
| Cc1cccc(-c2nnc3n2CCN(C(=O)c2ccc(F)cc2)[C@@H]3C)n1 | 1.6 | 197 µM (≈ 69.2 µg/mL) |  |  |  |  |  | 7.10 | 7.20 |
| Cc1csc(-c2nnc3n2CCN(C(=O)c2ccc(-c4cccs4)cc2)[C@@H]3C)n1 | 2.9 | 50 µM (≈ 21.1 µg/mL) | 4.96 | 4.38 | 5.10 | 4.74 | 5.10 |  | 8.20 |
| Cc1cccnc1-c1nnc2n1CCN(C(=O)c1ccc(F)cc1)C2 |  | ≥ 200 µM |  |  |  |  |  | < 4.50 | < 4.50 |
| COc1ccccc1C(=O)N1CCn2c(nnc2-c2ccccn2)C1 |  | ≥ 200 µM |  |  |  |  |  | < 4.50 | < 4.50 |
| O=C(c1ccc(F)cc1)N1CCn2c(nnc2-c2cccc(C(F)(F)F)n2)C1 |  | 193 µM (≈ 75.5 µg/mL) | < 4.00 | < 4.00 | < 4.00 | < 4.00 | 4.68 | 6.40 | 6.40 |
| Cc1cncc(-c2nnc3n2CCN(C(=O)c2ccc(-c4cccs4)cc2)[C@@H]3C)n1 | 2.7 | 160 µM (≈ 66.6 µg/mL) | 5.70 | < 4.00 | 4.77 | 4.41 | 4.30 | 7.70 | 7.90 |
| O=C(c1ccccc1F)N1CCn2c(nnc2-c2ccccn2)C1 |  | ≥ 200 µM |  |  |  |  |  | < 4.50 | < 4.50 |
| O=C(c1ccc(-c2cccs2)cc1)N1CCn2c(nnc2-c2ccccn2)C1 |  | 12 µM (≈ 4.65 µg/mL) |  |  |  |  |  | 6.20 | 6.30 |
| Cc1nc(-c2nnc3n2CCN(C(=O)c2ccc(-c4cccs4)cc2)[C@H]3C)cs1 | 3.1 |  |  |  |  |  |  |  |  |
| C[C@@H]1c2nnc(-c3csc(C(F)(F)F)n3)n2CCN1C(=O)c1ccc(-c2cccs2)cc1 | 4.1 | 11 µM (≈ 5.23 µg/mL) | < 4.00 | < 4.00 | 5.30 | 4.74 | 5.10 | 7.20 | 7.10 |
| Cc1ccc(-c2ccc(C(=O)N3CCn4c(nnc4-c4ccccn4)C3)cc2)o1 |  | 71 µM (≈ 27.4 µg/mL) |  |  |  |  |  | 5.00 | 4.80 |
| COc1cccc(C(=O)N2CCn3c(nnc3-c3ccccn3)C2)c1 |  | 196 µM (≈ 65.7 µg/mL) |  |  |  |  |  | < 4.50 | < 4.50 |
| COc1ccc(-c2ccc(C(=O)N3CCn4c(nnc4-c4ccccn4)C3)cc2)cc1 |  | 6.4 µM (≈ 2.63 µg/mL) |  |  |  |  |  | < 4.50 | < 4.50 |
| O=C(c1ccc(-c2ccccc2)cc1)N1CCn2c(nnc2-c2ccccn2)C1 |  | 28 µM (≈ 10.7 µg/mL) |  |  |  |  |  | 5.80 | 5.90 |
| O=C(c1cccc(F)c1)N1CCn2c(nnc2-c2ccccn2)C1 |  | 199 µM (≈ 64.3 µg/mL) |  |  |  |  |  | 5.20 | 5.30 |
| CC(C)c1nc(-c2nnc3n2CCN(C(=O)c2ccc(-c4cccs4)cc2)[C@@H]3C)cs1 | 4.4 | 25 µM (≈ 11.2 µg/mL) | 4.46 | 4.57 | 5.40 | 4.92 | 4.77 | 8.40 | 8.60 |
| Cc1cccc(-c2nnc3n2CCN(C(=O)c2ccc(-c4cccs4)cc2)[C@@H]3C)n1 | 3.4 | 110 µM (≈ 45.7 µg/mL) | 4.35 | 4.07 | 4.74 | 4.59 | 4.24 | 8.00 |  |
| COc1ccc(C(=O)N2CCn3c(nnc3-c3ccccn3)C2)cc1 |  | 194 µM (≈ 65.1 µg/mL) |  |  |  |  |  | < 4.50 | < 4.50 |
| O=C(c1ccc(Cc2ccccc2)cc1)N1CCn2c(nnc2-c2ccccn2)C1 |  | 169 µM (≈ 66.8 µg/mL) |  |  |  |  |  | < 4.50 | < 4.50 |
| Cc1ccnc(-c2nnc3n2CCN(C(=O)c2ccc(F)cc2)C3)c1 |  | ≥ 200 µM |  |  |  |  |  | 5.20 | 5.20 |
| O=C(c1ccc(-c2ccc(Cl)cc2)cc1)N1CCn2c(nnc2-c2ccccn2)C1 |  | 5.3 µM (≈ 2.2 µg/mL) |  |  |  |  |  | 5.40 | 5.30 |
| O=C(c1cc(-c2ccc(Cl)cc2)n[nH]1)N1CCn2c(nnc2-c2ccccn2)C1 |  | 1.4 µM (≈ 0.568 µg/mL) |  |  |  |  |  | 5.80 | 5.80 |
| Cc1ccc(-c2nnc3n2CCN(C(=O)c2ccc(F)cc2)C3)nc1 |  | ≥ 200 µM |  |  |  |  |  | 5.60 | 5.80 |
| O=C(c1ccc(-c2ccc(F)cc2)cc1)N1CCn2c(nnc2-c2ccccn2)C1 |  | 10 µM (≈ 3.99 µg/mL) |  |  |  |  |  | 5.80 | 5.70 |
| Cc1nc(-c2nnc3n2CCN(C(=O)c2ccc(F)cc2)[C@@H]3C)cs1 | 1.3 | ≥ 200 µM | 4.20 | < 4.00 | 4.25 | 4.36 | < 4.00 |  |  |
| C[C@@H]1c2nnc(-c3ccccn3)n2CCN1C(=O)c1ccc(F)cc1 |  | ≥ 200 µM |  |  |  |  |  | 6.10 | 6.10 |
